Measured values taken from patent US6420538B1, “Aromatic amides, preparation method and application as medicines” (Aventis Pharma S.A., priority 1998, dated 2002).

Assays:
Experiment in all cases: Method of dilutions in liquid medium (MIC)
Type in all cases: cell-based
Conditions in all cases: 24 hours at 37° C.
[1] = system: Strepto. pneumoniae 030BI2
Procedure: (§1) A—Method of dilutions in liquid medium A series of tubes is prepared in which the same quantity of sterile nutritive medium is distributed. Increasing quantities of the product to be studied are distributed into each tube, then each tube is sown with a bacterial strain. After incubation for twenty-four hours in an oven at 37° C., the growth inhibition is evaluated by transillumination, which allows the minimal inhibitory concentrations (M.I.C.) to be determined, expressed in micrograms/cm^3. Activity in vitro MIC in μg/ml

[2] = system: Staph. aureus 011HT18
Procedure: as §1

[3] = system: Entero faecalis 02D2UC5
Procedure: as §1

[4] = system: Strepto. pyogene 02A1UC1
Procedure: as §1

[5] = system: Entero faecium 02D3IP2
Procedure: as §1

[6] = system: Staph. epidermidis 0126042
Procedure: as §1

[7] = system: Staph. coag. negative 012HT5
Procedure: as §1

Activity in vitro MIC [1] [µg/mL] | Activity in vitro MIC [2] [µg/mL] | Activity in vitro MIC [3] [µg/mL] | Activity in vitro MIC [4] [µg/mL] | Activity in vitro MIC [5] [µg/mL] | Activity in vitro MIC [6] [µg/mL] | Activity in vitro MIC [7] [µg/mL] | SMILES
0.04 | 0.04 | 0.3 | 0.6 | 0.08 | 0.04 | 0.3 | C#CCONC(=O)O[C@H]1[C@@H](O)[C@H](Oc2ccc3c(O)c(C(N)=O)c(=O)oc3c2C)OC(C)(C)[C@@H]1OC [Ex. 1, (2-propynyloxy)-carbamic 3′ester of 7-[[6-deoxy-5-C-methyl-4-O-methyl-alpha-L-lyxo-hexopyranosyl]oxy]-4-hydroxy-8-methyl-2-oxo-2H-1-benzopyran-3-carboxamide acid]
0.08 | 0.04 | 1.2 | 0.3 | 0.6 | 0.04 | 0.04 | C#CCONC(=O)O[C@H]1[C@@H](O)[C@H](Oc2ccc3c(O)c(C(=O)NCCN4CCOCC4)c(=O)oc3c2C)OC(C)(C)[C@@H]1OC [Ex. 2, 7-[(6-deoxy-5-C-methyl-4-O-methyl-alpha-L-lyxo-hexopyranosyl)oxyl]-4-hydroxy-8-methyl-N-[2-(4-morpholinyl)ethyl]-2-oxo-2H-1-benzopyrane-3-carboxamide (2-propynyloxy)-carbamic 3′-ester acid]
0.08 | 0.04 | 1.2 | 0.6 | 1.2 | 0.04 | 0.15 | C#CCONC(=O)O[C@H]1[C@@H](O)[C@H](Oc2ccc3c(O)c(C(C)=NOC)c(=O)oc3c2C)OC(C)(C)[C@@H]1OC [Ex. 3, 7-[[6-deoxy-5-C-methyl-4-O-methyl-alpha-L-lyxo-hexopyranosyl]oxy]-4-hydroxy-3-[1-(methoxyimino)ethyl]-8-methyl-2H-1-benzopyran-2-one(2-propynyloxy)-carbamic-3′-ester acid]
0.15 | 0.04 | 1.2 | 0.6 | 1.2 | 0.15 | 0.15 | C#CCONC(=O)O[C@H]1[C@@H](O)[C@H](Oc2ccc3c(O)c(C(C)=NOCC)c(=O)oc3c2C)OC(C)(C)[C@@H]1OC [Ex. 4, 7-[(6-deoxy-5-C-methyl-4-O-methyl-alpha-L-lyxo-hexopyranosyl)oxy]-3-[1-(ethoxyimino)ethyl]-4-hydroxy-8-methyl-2H-1-benzopyran-2-one(2-propynyloxy)-carbamic 3′-ester acid]
